According to US9573954B2, “Pyrazolopyrimidine compounds” (University Health Network, priority 2012, dated 2017):
pIC50: −log10 of the molar value. Where two headings read alike, the source gives them in different places.

Experiments:
[1] = system: ovarian cancer cells (OVCAR-3); experiment: Cancer cell line growth inhibition, Sulforhodamine B assay, OVCAR-3; type: cell-based; details: read-out: Cancer Cell Line GI50 Range OVCAR-3
Description: (§1) Breast cancer cells (MDA-MB-231 and MDA-MB-468), colon cancer cells (HCT116) and ovarian cancer cells (PA-1 and OVCAR-3) were seeded (1000 to 4000 in 80 μl per well depending on the cell growth rate) into 96 well plates 24 hours before compound overlay. Compounds were prepared as 10 mM stock solutions in 100% DMSO which were diluted with DMEM (Dulbecco's Modified Eagle's Medium) cell growth Medium (Invitrogen, Burlington, ON, Canada) containing 10% FBS (Fetal Bovine Serum) to concentrations ranging from 50 nM to 250 μM. Aliquots (20 μl) from each concentration were overlaid to 80 μl of the pre-seeded cells in the 96 well plates to make final concentrations of 10 nM to 50 μM. The cells were cultured for 5 days before the Sulforhodamine B assay (SRB) was performed to determine the compound's cell growth inhibition activity.
(§2) Sulforhodamine B (purchased from Sigma, Oakville, ON, Canada) is a water-soluble dye that binds to the basic amino acids of the cellular proteins. Thus, colorimetric measurement of the bound dye provides an estimate of the total protein mass that is related to the cell number. the cells are fixed in situ by gently aspirating off the culture media and adding 50 μl ice cold 10% Trichloroacetic Acid (TCA) per well and incubate at 4° C. for 30-60 min, The plates are washed with H2O five times and allowed to air dry for 5 min. Addition of 50 μl 0.4% (w/v) SRB solution in 1% (v/v) acetic acid to each well and incubation for 30 min at RT completes the staining reaction. Following staining, plates are washed four times with 1% acetic acid to remove unbound dye and then allowed to air dry for 5 min. The stain is solubilized with 100 μl of 10 mM Tris pH 10.5 per well. Absorbance is read at 570 nm.
(§3) The percentage (%) of relative growth inhibition was calculated by comparing to DMSO treated only cells (100%). GI50's were determined for compounds with cytotoxic activity. The GI50 was calculated using GraphPad PRISM software (GraphPad Software, Inc., San Diego, Calif., USA).
(§4) In Table 3 below, GI50 value ranges for compound examples against breast cancer cell lines (MDA-MB-468), colon cancer cell lines (HCT116) and ovarian cancer cell lines (OVCAR-3) are given.

[2] = system: colon cancer cells (HCT116); experiment: Cancer cell line growth inhibition, Sulforhodamine B assay, HCT116; type: cell-based; details: read-out: Cancer Cell Line GI50 Range HCT116
Description: as §1, §2, §3
(§5) In Table 1 below, GI50 value ranges for compound examples against breast cancer cell lines (MDA-MB-468), colon cancer cell lines (HCT116) and ovarian cancer cell lines (PA-1) are given.
In Table 2 below, GI50 value ranges for compound examples against breast cancer cell lines (MDA-MB-231), colon cancer cell lines (HCT116) and ovarian cancer cell lines (PA-1) are given.
as §4

[3] = system: breast cancer cells (MDA-MB-468); experiment: Cancer cell line growth inhibition, Sulforhodamine B assay, MDA-MB-468; type: cell-based; details: read-out: Cancer Cell Line GI50 Range MDA-MB-468
Description: as §1, §2, §3, §5, §4

human TTK = biological target: T1, human TTK (Homo sapiens, UniProt P33981); experiment: TTK inhibition assay (indirect ELISA); type: biochemical
T1 construct: Active TTK was purchased from Invitrogen as an amino terminal GST fusion of full length human TTK; purchased Invitrogen
T1 sequence (P33981 1-857): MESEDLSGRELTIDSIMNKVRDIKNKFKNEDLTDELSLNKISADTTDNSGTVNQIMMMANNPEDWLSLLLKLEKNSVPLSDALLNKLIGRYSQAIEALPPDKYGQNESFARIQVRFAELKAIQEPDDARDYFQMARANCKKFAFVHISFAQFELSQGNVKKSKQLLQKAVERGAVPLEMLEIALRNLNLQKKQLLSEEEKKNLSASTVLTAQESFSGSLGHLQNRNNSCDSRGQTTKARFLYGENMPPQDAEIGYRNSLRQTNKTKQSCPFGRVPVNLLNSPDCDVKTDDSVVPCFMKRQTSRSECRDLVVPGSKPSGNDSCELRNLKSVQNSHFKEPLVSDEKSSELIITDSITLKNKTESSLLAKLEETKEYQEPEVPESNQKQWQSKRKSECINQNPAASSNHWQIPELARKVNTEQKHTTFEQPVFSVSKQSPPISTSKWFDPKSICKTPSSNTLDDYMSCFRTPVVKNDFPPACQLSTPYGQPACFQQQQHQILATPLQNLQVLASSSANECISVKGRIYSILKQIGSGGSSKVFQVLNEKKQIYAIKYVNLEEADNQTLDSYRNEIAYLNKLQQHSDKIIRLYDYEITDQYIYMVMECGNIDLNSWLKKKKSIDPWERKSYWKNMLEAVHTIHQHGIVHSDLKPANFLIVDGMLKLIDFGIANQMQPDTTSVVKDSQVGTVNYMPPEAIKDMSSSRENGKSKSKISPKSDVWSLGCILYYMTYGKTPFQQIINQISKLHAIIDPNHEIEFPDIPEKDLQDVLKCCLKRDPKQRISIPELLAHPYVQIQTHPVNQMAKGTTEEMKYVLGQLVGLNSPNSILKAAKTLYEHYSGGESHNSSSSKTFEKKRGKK
Description: Active TTK was purchased from Invitrogen as an amino terminal GST fusion of full length human TTK.
TTK activity was measured using an indirect ELISA detection system.
Compounds were pre-incubated in the presence of enzyme for 5 minutes prior to addition of ATP and the activity remaining quantified using the above described activity assay. The % Inhibition of a compound was determined using the following formula; % Inhibition=100×(1−(experimental value−background value)/(high activity control−background value)). The IC50 value was determined using a non-linear 4 point logistic curve fit (XLfit4, IDBS) with the formula; (A+(B/(1+((x/C)^D)))), where A=background value, B=range, C=inflection point, D=curve fit parameter.

[4] = Homo sapiens, OVCAR-3, OVCAR-3 ovarian cancer cell line
[5] = Homo sapiens, HCT-116, HCT116 colon cancer cell line
[6] = Homo sapiens, MDA-MB-468, MDA-MB-468 breast cancer cell line
[7] = 100 μM ATP, read-out: TTK IC50 Range
[8] = 16 μM ATP (Sigma cat# A7699), read-out: TTK IC50 Range (denoted with an asterisk)

Row | SMILES | GI50 [1, 4] | GI50 [2, 5] | GI50 [3, 6] | pIC50 (human TTK; [7]) | pIC50 (human TTK; [8]) | GI50 ([1]; OVCAR-3 ovarian cancer cell line) | GI50 ([2]; HCT116 colon cancer cell line) | GI50 ([3]; MDA-MB-468 breast cancer cell line)
1 | Cc1cc(-c2cnn3c(NCC4(F)CCNCC4)cc(NC4CCCC4)nc23)ccc1C(=O)NC1CC1 [Example C169] | > 500 nM | 100 to 500 nM | > 500 nM | > 7.00 |  |  |  | 
2 | Cc1cc(-c2cnn3c(NCC4CCOCC4)cc(NC4(CO)CC4)nc23)ccc1C(=O)NC1CC1 [Example C139] | 100 to 500 nM | 100 to 500 nM | 100 to 500 nM | > 7.00 |  |  |  | 
3 | Cc1cc(-c2cnn3c(NCCN4CCOCC4)cc(Oc4cccc(Cl)c4)nc23)ccc1C(=O)NC1CC1 [Example C97] | 100 to 500 nM | ≤ 100 nM | 100 to 500 nM | > 7.00 |  |  |  | 
4 | Cc1cc(-c2cnn3c(NCC4(O)CCOCC4)cc(NC4CCCC4)nc23)ccc1C(=O)NC1CC1 [Example C95] | > 500 nM | 100 to 500 nM | > 500 nM | > 7.00 |  |  |  | 
5 | Cc1cc(-c2cnn3c(NCC4CC4)cc(NC4(CO)CCCC4)nc23)ccc1C(=O)NC1CC1 [Example C148] | > 500 nM | 100 to 500 nM | 100 to 500 nM | > 7.00 |  |  |  | 
6 | COCCNc1cc(N[C@H]2CCCC[C@H]2O)nc2c(-c3ccc(C(=O)NC4CC4)c(C)c3)cnn12 [Example C108] | ≤ 100 nM | ≤ 100 nM | 100 to 500 nM | > 7.00 |  |  |  | 
7 | Cc1cc(-c2cnn3c(NCC4CCOCC4)cc(N[C@H]4CCOC4)nc23)ccc1C(=O)NC1CC1 [Example C138] | 100 to 500 nM | ≤ 100 nM | 100 to 500 nM | > 7.00 |  |  |  | 
8 | Cc1cc(-c2cnn3c(NCC4CCOCC4)cc(N[C@H]4COCC[C@@H]4O)nc23)ccc1C(=O)NC1CC1 [Example C79] | > 500 nM | > 500 nM | > 500 nM | > 7.00 |  |  |  | 
9 | Cc1cc(-c2cnn3c(NC[C@H]4C[C@@H](O)C4)cc(Oc4cccnc4)nc23)ccc1C(=O)NC1CC1 [Example C159] | ≤ 100 nM | ≤ 100 nM | ≤ 100 nM | > 7.00 |  |  |  | 
10 | Cc1cc(-c2cnn3c(NCC4CCOCC4)cc(NCCN4CCOCC4)nc23)ccc1C(=O)NC1CC1 [Example C114] | > 500 nM | > 500 nM | > 500 nM | > 7.00 |  |  |  | 
11 | Cc1cc(-c2cnn3c(NCC4CCOCC4)cc(Oc4ccc[n+]([O-])c4)nc23)ccc1C(=O)NC1CC1 [Example C30, 3-((3-(4-(cyclopropylcarbamoyl)-3-methylphenyl)-7-(((tetrahydro-2H-pyran-4-yl)methyl)amino)pyrazolo[1,5-a]pyrimidin-5-yl)oxy)pyridine-1-oxide] | > 500 nM | > 500 nM | > 500 nM | > 7.00 |  |  |  | 
12 | O=C(NC1CC1)c1ccc(-c2cnn3c(NCC4CCOCC4)nc(Nc4ccccc4)nc23)cc1Cl [Example C9] | 100 to 500 nM | > 500 nM | > 500 nM |  | > 7.00 |  |  | 
13 | Cc1cc(-c2cnn3c(NCC4CCOCC4)cc(N[C@@H](CO)C(C)C)nc23)ccc1C(=O)NC1CC1 [Example C121] | > 500 nM | 100 to 500 nM | 100 to 500 nM | > 7.00 |  |  |  | 
14 | Cc1cc(-c2cnn3c(NC[C@H]4CC[C@@H](O)CC4)cc(NC4CCOCC4)nc23)ccc1C(=O)NC1CC1 [Example C179] | ≤ 100 nM | ≤ 100 nM | ≤ 100 nM | > 7.00 |  |  |  | 
15 | Cc1cc(-c2cnn3c(NCC4(CO)CCOCC4)cc(NC4CCCC4)nc23)ccc1C(=O)NC1CC1 [Example C92] | > 500 nM | 100 to 500 nM | > 500 nM | > 7.00 |  |  |  | 
16 | Cc1cc(-c2cnn3c(NCC4CCOCC4)cc(N[C@H]4CCCC[C@H]4CO)nc23)ccc1C(=O)NC1CC1 [Example C131] | > 500 nM | 100 to 500 nM | 100 to 500 nM | > 7.00 |  |  |  | 
17 | CC(=O)Nc1cccc(Oc2nc(NCC3CCOCC3)n3ncc(-c4ccc(C(=O)NC5CC5)c(C)c4)c3n2)c1 [Example C19] | > 500 nM | > 500 nM | 100 to 500 nM |  | > 7.00 |  |  | 
18 | O=C(NC1CC1)c1ccc(-c2cnn3c(NCCN4CCOCC4)cc(Oc4ccccc4)nc23)cc1Cl [Example C105] | ≤ 100 nM | ≤ 100 nM | ≤ 100 nM | > 7.00 |  |  |  | 
19 | Cc1cc(-c2cnn3c(NCC4(F)CCN(C)CC4)cc(Oc4cccnc4)nc23)ccc1C(=O)NC1CC1 [Example C147] | > 500 nM | 100 to 500 nM | 100 to 500 nM | > 7.00 |  |  |  | 
20 | Cc1cc(-c2cnn3c(NC[C@@H]4CCOC4)cc(N[C@H]4CCCC[C@H]4O)nc23)ccc1C(=O)NC1CC1 [Example C36, N-cyclopropyl-4-(5-(((1S,2R)-2-hydroxycyclohexyl)amino)-7-((((S)-tetrahydrofuran-3-yl)methyl)amino)pyrazolo[1,5-a]pyrimidin-3-yl)-2-methylbenzamide] | ≤ 100 nM | ≤ 100 nM | ≤ 100 nM | > 7.00 |  |  |  | 
21 | Cc1cc(-c2cnn3c(NC[C@H]4CCCO4)cc(NC4CCCC4)nc23)ccc1C(=O)NC1CC1 [Example C62] | 100 to 500 nM | 100 to 500 nM | 100 to 500 nM | > 7.00 |  |  |  | 
22 | Cc1cc(-c2cnn3c(NCC4CCOCC4)cc(N[C@@H]4CCCC[C@H]4O)nc23)ccc1C(=O)NC1CC1 [Example C124] | 100 to 500 nM | 100 to 500 nM | 100 to 500 nM | > 7.00 |  |  |  | 
23 | CCO[C@H]1COC[C@@H]1Nc1cc(NCC2CCOCC2)n2ncc(-c3ccc(C(=O)NC4CC4)c(C)c3)c2n1 [Example C90] | > 500 nM | 100 to 500 nM | 100 to 500 nM | > 7.00 |  |  |  | 
24 | Cc1cc(-c2cnn3c(NC[C@H]4C[C@](C)(O)C4)cc(NC4CCCC4)nc23)ccc1C(=O)NC1CC1 [Example C186] | 100 to 500 nM | ≤ 100 nM | 100 to 500 nM | > 7.00 |  |  |  | 
25 | Cc1cc(-c2cnn3c(NCC4CCOCC4)cc(N[C@H]4CCC[C@@H]4O)nc23)ccc1C(=O)NC1CC1 [Example C126] |  |  |  | > 7.00 |  | ≤ 100 nM | ≤ 100 nM | ≤ 100 nM
